Patent US7993922B2, “Three-dimensional tissue equivalent using macromass culture” (Reliance Life Sciences Pvt. Ltd., priority 2002, dated 2011)

Legend:
[1] = tested on: dividing monolayers of fibroblasts; test: Camptothecin toxicity on dividing monolayers, MTT; assay type: cell-based, human; conditions: actively dividing monolayer cells
Experimental: (§1) As mentioned previously, the tissue equivalent of the present invention could be used as an in vitro model of normal non-dividing cells for safety testing of anti-cancer compounds. To test its usefulness as such a model, dividing monolayers of fibroblasts and the tissue-equivalent of the present invention were incubated with or without (control) camptothecin, an anti-cancer drug known to act on dividing cells and not on non-dividing cells. Both were incubated for the same period of time. Then the metabolic activity was assessed by incubating both groups in MTT, which was quantified by spectrophotometry. […] Leroy et al. Ann. N.Y. Acad. Sci. (2000) 922:1-10. Thus, these are normal cells in a non-dividing state, which could be a model of the normal quiescent cells of the human body, in contrast to the abnormal tumour cells which are rapidly dividing.

[2] = tested on: tissue-equivalent of the present invention (non-dividing fibroblasts); test: Camptothecin toxicity on the non-dividing model (tissue equivalent), MTT; assay type: cell-based, human; conditions: non-dividing cells
Experimental: as §1

[3] = tested on: neuropathic diabetic foot ulcers; conditions: topical; cited from earlier work

Row | Compound | Toxicity (metabolic activity, MTT) [1] | Toxicity (metabolic activity, MTT) [2] | Acceleration in the healing of ulcers [3]
1 | CC[C@@]1(O)C(=O)OCc2c1cc1n(c2=O)Cc2cc3ccccc3nc2-1 [camptothecin] | toxic | no toxicity | 
2 | Regranex® Becaplermin: FDA-approved topical platelet-derived growth factor (PDGF) for chronic diabetic neuropathic ulcers |  |  | 15%
